Test results reported in US20110274789A1, “ISOLATED LACTOBACILLUS PLANTARUM STRAIN INDUCIA DSM 21379 AS PROBIOTIC THAT ENHANCES NATURAL IMMUNITY AND FOOD PRODUCTS AND MEDICINAL PREPARATIONS COMPRISING IT” (priority 2008, published 2011).
≈ marks a conversion by molar mass, not a printed value.

Assays:
[1] = tested on: Control strain L. plantarum DSM 21380; test: Antibiotic resistance, E-test MIC, control strain; format: cell-based, Lactobacillus plantarum; details: for MIC: Lactiplantibacillus plantarum, DSM21380, E-test strips, read-out: MIC (minimal inhibitory concentration); for MIC (minimal inhibitory concentration): E-test strips
[2] = tested on: Lactobacillus plantarum Inducia DSM 21379; test: Antibiotic resistance, E-test MIC; format: cell-based; details: for MIC: Lactiplantibacillus plantarum, DSM21379, read-out: MIC (minimal inhibitory concentration); for MIC (minimal inhibitory concentration): E-test strips, L. plantarum Inducia DSM 21379
Procedure: Method. Lactobacillus plantarum Inducia DSM 21379 was tested using antibiotic strips of the E-test (AB Biodisk, Solna).

[3] = in vivo, po; cited from earlier work

CC1(C)S[C@@H]2[C@H](NC(=O)[C@H](N)c3ccccc3)C(=O)N2[C@H]1C(=O)O [Ampicillin]
MIC [1]: 0.25 µg/mL (≈ 0.715 µM) | MIC [2]: 0.19 µg/mL (≈ 0.544 µM)

O=C(N[C@H](CO)[C@H](O)c1ccc([N+](=O)[O-])cc1)C(Cl)Cl [Chloramphenicol]
MIC [1]: 2 µg/mL (≈ 6.19 µM) | MIC [2]: 2 µg/mL (≈ 6.19 µM)

CCC[C@@H]1C[C@@H](C(=O)N[C@@H]([C@H]2O[C@H](SC)[C@H](O)[C@@H](O)[C@H]2O)[C@H](C)Cl)N(C)C1 [Clindamycin]
MIC [1]: 0.032 µg/mL (≈ 0.0753 µM) | MIC [2]: 0.016 µg/mL (≈ 0.0376 µM)

CC[C@H]1OC(=O)[C@H](C)[C@@H](O[C@H]2C[C@@](C)(OC)[C@@H](O)[C@H](C)O2)[C@H](C)[C@@H](O[C@@H]2O[C@H](C)C[C@H](N(C)C)[C@H]2O)[C@](C)(O)C[C@@H](C)C(=O)[C@H](C)[C@@H](O)[C@]1(C)O [Erytromycin]
MIC (minimal inhibitory concentration) [1]: 0.19 µg/mL (≈ 0.259 µM) | MIC (minimal inhibitory concentration) [2]: 0.25 µg/mL (≈ 0.341 µM)

NCCCCN [Putrescine]
consumed amount absorbed from intestine into bloodstream [3]: 20%

[H]/N=C(/N)N[C@H]1[C@H](O)[C@@H](O)[C@H](O[C@@H]2O[C@@H](C)[C@](O)(C=O)[C@H]2O[C@@H]2O[C@@H](CO)[C@H](O)[C@@H](O)[C@@H]2NC)[C@@H](N/C(N)=N\[H])[C@@H]1O [Streptomycin]
MIC [1]: 16 µg/mL (≈ 27.5 µM) | MIC [2]: 6 µg/mL (≈ 10.3 µM)

CN(C)[C@@H]1C(O)=C(C(N)=O)C(=O)[C@@]2(O)C(O)=C3C(=O)c4c(O)cccc4[C@@](C)(O)[C@H]3C[C@@H]12 [Tetracycline]
MIC [1]: 8 µg/mL (≈ 18 µM) | MIC [2]: 6 µg/mL (≈ 13.5 µM)

Cipro/ofloxacin
MIC (minimal inhibitory concentration) [1]: 32 µg/mL | MIC (minimal inhibitory concentration) [2]: 32 µg/mL

Gentamicin
MIC (minimal inhibitory concentration) [1]: 1.5 µg/mL | MIC (minimal inhibitory concentration) [2]: 1 µg/mL
